Ki data for two compounds are collected here from patent EP1632479A2, “Piperazine derivatives useful as ccr5 antagonists” (SCHERING CORPORATION, priority 1999, dated 2000).

In general, Ki refers to a dissociation constant, usually derived from enzyme kinetics or from competition with a known ligand. A high value points to a looser hold on the target.

This assay addresses T1, human CCR5 chemokine receptor (Homo sapiens, UniProt P51681).
T1 construct: expressed in transfected cells; host or cells: NIH 3T3 cells (murine), membranes
The experiment in a line: CCR5 membrane binding assay (inhibition of RANTES binding). To be noted: 125I-RANTES; membranes from NIH 3T3 cells expressing the human CCR5 chemokine receptor; one hour incubation. The method, then:
CCR5 Membrane Binding Assay:
A high throughput screen utilizing a CCR5 membrane binding assay identifies inhibitors of RANTES binding. This assay utilizes membranes prepared from NIH 3T3 cells expressing the human CCR5 chemokine receptor which have the ability to bind to RANTES, a natural ligand for the receptor. […] Compounds are serially diluted over a wide range of 0.001 ug/ml to 1 ug/ml and tested in triplicates. Reaction cocktails are harvested through glass fiber filters, and washed thoroughly.

T1 sequence (P51681 whole entry): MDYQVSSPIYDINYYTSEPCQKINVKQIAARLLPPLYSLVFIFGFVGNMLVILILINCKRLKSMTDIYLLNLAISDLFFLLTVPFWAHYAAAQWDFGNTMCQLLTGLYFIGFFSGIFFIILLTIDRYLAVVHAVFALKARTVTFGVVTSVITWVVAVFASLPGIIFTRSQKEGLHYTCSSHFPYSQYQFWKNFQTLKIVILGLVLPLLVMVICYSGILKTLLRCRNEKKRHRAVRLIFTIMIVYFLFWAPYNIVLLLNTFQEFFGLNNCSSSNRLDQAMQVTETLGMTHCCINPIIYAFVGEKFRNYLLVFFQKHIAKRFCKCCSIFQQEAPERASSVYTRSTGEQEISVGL

Turning to `Cc1cccc(C)c1C(=O)N1CCC(N2CCN(C(C)c3ccc(-c4ccccc4)cc3)C(C)C2)CC1` (centres unmarked) [Example 16], the Ki came to 60 nM.

Compound `Cc1cccc(C)c1C(=O)N1CCC(N2CCN(C(C)c3ccc(I)cc3)C(C)C2)CC1` (centres unmarked) [Example 11] came in with an inhibition constant (Ki) of 10.5 nM.
